Literature values, collected in patent US20060194715A1, “Proteins encoded by ble genes and antibiotics from the bleomycin family” (priority 2002, published 2006).
Values joined by “and” are separate entries in the source; they are usually repeats but may differ in a detail not shown here. Equal entries are not always repeated. Where two headings read alike, the source gives them in different places.

Target: T1, Sh ble protein (Streptoalloteichus hindustanus, UniProt P17493)
T1 sequence (P17493 1-124): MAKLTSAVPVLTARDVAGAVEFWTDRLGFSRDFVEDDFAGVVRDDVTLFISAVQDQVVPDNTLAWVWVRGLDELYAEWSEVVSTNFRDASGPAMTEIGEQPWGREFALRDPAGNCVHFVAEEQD

bleomycin
Kd (first bleomycin molecule bound, read-out: first affinity (single molecule of bleomycin bound to Sh ble dimer)): ~600 nM
Kd (second bleomycin molecule bound, read-out: second affinity (two molecules of bleomycin bound to Sh ble dimer)): ~100 nM and ≤ 100 nM
